The nature of series [1]: solubility of the API in MeOH. The class given is physicochemical. The settings on record: 20° C. The protocol:
The solubility at 20° C. of the API in MeOH was determined as follows: approximately 50 mg Levothyroxine sodium were weighed in a vial. Methanol was gradually added until the solution became clear.

Series [2] is described as follows: LVX solubility in DCM/MeOH 10/3 with PLGA (evaluation of maximum theoretical drug loading). The class given is physicochemical. As to the method:
A quantity of approximately 0.25 g of polymer and varying quantities of LVX corresponding to theoretical drug loading values 1%, 2%, 3% and 4% were weighed in four vials. A DCM/MeOH mixture at a ratio of 10/3 (to ensure the polymer is always dissolved) was gradually added in each vial. The respective PLGA (PURASORB PDLG 5002A) concentrations, % LVX content and LVX solubility were evaluated and are presented in the table below.

The structures appear in SMILES notation.

For `N[C@@H](Cc1cc(I)c(Oc2cc(I)c(O)c(I)c2)c(I)c1)C(=O)O` [Levothyroxine sodium], the “solubility in MeOH” value in series [1] is 3.41 % mass LVX/mass of MeOH. In series [2] (DCM/MeOH 10/3 with PLGA), the “ratio LVX/(DCM+MeOH) at which levothyroxine is dissolved” value is given as “below 0.1%”. Moreover, the “LVX Solubility” value in series [2] (Vial 1, 1.0% TDL, DCM+MeOH 2.5 g, 0.11% LVX in mix, 13.01% PLGA in DCM) was “Insoluble”; in series [2] (Vial 1, 1.0% TDL, DCM+MeOH 3.3 g, 0.08% LVX in mix, 9.99% PLGA in DCM), “Almost Clear”; in series [2] (Vial 1, 1.0% TDL, DCM+MeOH 4.3 g, 0.06% LVX in mix, 7.63% PLGA in DCM), “Clear”; in series [2] (Vial 1, 1.0% TDL, DCM+MeOH 5.5 g, 0.05% LVX in mix, 5.92% PLGA in DCM), “Clear”; in series [2] (Vial 2, 2.0% TDL, DCM+MeOH 2.6 g, 0.20% LVX in mix, 12.58% PLGA in DCM) it was “Slurry”; in series [2] (Vial 2, 2.0% TDL, DCM+MeOH 3.3 g, 0.16% LVX in mix, 10.05% PLGA in DCM), “Sluny”. The “LVX Solubility” value in series [2] (Vial 2, 2.0% TDL, DCM+MeOH 4.3 g, 0.12% LVX in mix, 7.69% PLGA in DCM) was “Less Slurry”; in series [2] (Vial 2, 2.0% TDL, DCM+MeOH 5.6 g, 0.09% LVX in mix, 5.92% PLGA in DCM), “Almost Clear”; in series [2] (Vial 3, 3.0% TDL, DCM+MeOH 2.6 g, 0.30% LVX in mix, 12.69% PLGA in DCM) it was “Shary”; in series [2] (Vial 3, 3.0% TDL, DCM+MeOH 3.3 g, 0.24% LVX in mix, 9.97% PLGA in DCM) it was “Slurry”; in series [2] (Vial 3, 3.0% TDL, DCM+MeOH 4.2 g, 0.18% LVX in mix, 7.70% PLGA in DCM), “Less Shury”; in series [2] (Vial 3, 3.0% TDL, DCM+MeOH 5.5 g, 0.14% LVX in mix, 5.95% PLGA in DCM), “Less Slurry”. Further, the “LVX Solubility” value in series [2] (Vial 3, 3.0% TDL, DCM+MeOH 7.7 g, 0.10% LVX in mix, 4.25% PLGA in DCM) was “Almost Clear”; in series [2] (Vial 3, 3.0% TDL, DCM+MeOH 9.6 g, 0.08% LVX in mix, 3.39% PLGA in DCM), “Almost Clear”; in series [2] (Vial 3, 3.0% TDL, DCM+MeOH 12.3 g, 0.06% LVX in mix, 2.65% PLGA in DCM), “Clear”; in series [2] (Vial 4, 4.0% TDL, DCM+MeOH 2.6 g, 0.39% LVX in mix, 12.33% PLGA in DCM), “Slurry”; in series [2] (Vial 4, 4.0% TDL, DCM+MeOH 3.3 g, 0.31% LVX in mix, 9.82% PLGA in DCM), “Shary”; in series [2] (Vial 4, 4.0% TDL, DCM+MeOH 4.3 g, 0.24% LVX in mix, 7.56% PLGA in DCM), “Slurry”. Also, the “LVX Solubility” value in series [2] (Vial 4, 4.0% TDL, DCM+MeOH 5.6 g, 0.19% LVX in mix, 5.87% PLGA in DCM) is recorded as “Less Slurry”.

The record behind these values is patent US20250268830A1, “SUSTAINED RELEASE INJECTABLE PHARMACEUTICAL FORMULATION OF LEVOTHYROXINE AND PROCESS FOR PREPARATION THEREOF” (PHARMATHEN S.A., priority 2021, published 2025).
